The results in this text go back to patent US6716851B2, “Substituted 2-aryl-4-arylaminopyrimidines and analogs as activators or caspases and inducers of apoptosis and the use thereof” (Cytovia, Inc., priority 2000, dated 2004).

The subject of test [1] is ZR-75-1 cells. Briefly: Caspase cascade activation (N-(Ac-DEVD)-N'-ethoxycarbonyl-R110 fluorogenic substrate) in ZR-75-1 cells. The class given is cell-based, Human. The conditions noted are these: ZR-75-1, 48 h incubation; for EC50: Homo sapiens, caspase activation potency; for ZR Ratio 48 hr: caspase activity: ratio of net RFU of test compound to control. Here is the method: (§1) Human breast cancer cell lines T-47D and ZR-75-1 were grown according to media component mixtures designated by American Type Culture Collection +10% FCS (Invitrogen Corporation, Life Technologies division), in a 5% CO2-95% humidity incubator at 37° C. T-47D and ZR-75-1 cells were maintained at a cell density between 50 and 80% confluency at a cell density of 0.1 to 0.6×10^6 cells/ml. Cells were harvested at 600× g and resuspended at 0.65×10^6 cells/ml into appropriate media +10% FCS. An aliquot of […] of cells was added to a well of a […] microtiter plate containing 2.5 μl of a 10% DMSO in RPMI-1640 media solution containing 0.16 to 100 μM of 4-(3-methoxyanilino)-2-(2-pyridinyl)-6-(trifluoromethyl)pyrimidine or other test compound (0.016 to 10 μM final). An aliquot of 22.5 μl of cells was added to a well of a 384-well microtiter plate containing 2.5 μl of a 10% DMSO in RPMI-1640 media solution without test compound as the control sample. The samples were mixed by agitation and then incubated at 37° C. for 48 h in a 5% CO2-95% humidity incubator. After incubation, the samples were removed from the incubator and 25 μl of a solution containing 14 μM of N-(Ac-DEVD)-N′-ethoxycarbonyl-R110 fluorogenic substrate (Cytovia, Inc.; WO99/18856), 20% sucrose (Sigma), 20 mM DTT (Sigma), 200 mM NaCl (Sigma), 40 mM Na PIPES buffer pH 7.2 (Sigma), and 500 μg/ml lysolecithin (Calbiochem) was added. The samples were mixed by agitation and incubated at room temperature. Using a fluorescent plate reader (Model SpectraMax Gemini, Molecular Devices), an initial reading (T=0) was made approximately 1-2 min after addition of the substrate solution, employing excitation at 485 nm and emission at 530 nm, to determine the background fluorescence of the control sample. After the 3 h incubation, the samples were read for fluorescence as above (T=3 h).
(§2) The Relative Fluorescence Unit values (RFU) were used to calculate the sample readings as follows:
(§3) RFU(T=3h)−Control RFU(T=0)=Net RFU(T=3h)
(§4) The activity of caspase cascade activation was determined by the ratio of the net RFU value for 4-(3-methoxyanilino)-2-(2-pyridinyl)-6-(trifluoromethyl)pyrimidine or other test compound to that of control samples. The EC50 (nM) was determined by a sigmoidal dose-response calculation (Prism 2.0, GraphPad Software Inc.).

In test [2] the test system is T-47D cells. In words: Caspase cascade activation (N-(Ac-DEVD)-N'-ethoxycarbonyl-R110 fluorogenic substrate) in T-47D cells. Type of test: cell-based, Human. The conditions noted are these: 48 h incubation; for EC50: Homo sapiens, T47D, caspase activation potency, read-out: T47 EC50; for T47 Ratio 48 hr: caspase activity: ratio of net RFU of test compound to control. Here is the method: as §1, §2, §3, §4

Regarding `O=[N+]([O-])c1cccc(-c2cccc(Nc3cc(C(F)(F)F)nc(-c4cccnc4)n3)c2)c1` [Example 61, 4-[3-(3-Nitrophenyl)anilino]-2-(3-pyridinyl)-6-(trifluoromethyl)pyrimidine], in test [1], the EC50 (usually the concentration giving half of the maximal effect) is over 5000 nM and the “ZR Ratio 48 hr” value came out at 1.2. In test [2], the EC50 is over 5000 nM and the “T47 Ratio 48 hr” value worked out at 1.8.
Consider `COc1cc(Nc2cc(C(F)(F)F)nc(-c3cccnc3)n2)cc(OC)c1.Cl` [Example 122, 4-(3,5-Dimethoxyanilino)-2-(3-pyridinyl)-6-(trifluoromethyl)pyrimidine hydrochloride], for which, in test [1], the half-maximal effective concentration (EC50) was determined as 192 nM and the “ZR Ratio 48 hr” value is listed as 10.1. In test [2], the EC50 was found to be 44 nM and the “T47 Ratio 48 hr” value stood at 11.1.
For `Cc1cc(Nc2cc(C(F)(F)F)nc(-c3cnccn3)n2)c(C)cc1O.Cl` [Example 148, 4-(2,5-Dimethyl-4-hydroxyanilino)-(2-pyrazinyl)-6-(trifluoromethyl)pyrimidine hydrochloride], in that order: 243 nM, 8.4, 412 nM and 13.8.
As to `COc1ccc(Cl)c(Nc2cc(-c3ccccn3)nc(-c3ccccn3)n2)c1.Cl` [Example 113, 4-(2-Chloro-5-methoxyanilino)-2,6-di(2-pyridinyl)pyrimidine], in test [1], the EC50 was found to be 2730 nM and the “ZR Ratio 48 hr” value was found to be 4.1. Also, in test [2], the EC50 amounted to 1430 nM and the “T47 Ratio 48 hr” value is listed as 4.4.
For `COc1ccc(OC)c(Nc2cc(C(F)(F)F)nc(-c3ccncc3)n2)c1` [Example 42, 4-(2,5-Dimethoxyanilino)-2-(4-pyridinyl)-6-(trifluoromethyl)pyrimidine], in that order: 145 nM, 2.5, 43 nM and 5.8.
The corresponding values for `Oc1ccc(Cl)cc1Nc1cc(C(F)(F)F)nc(-c2cnccn2)n1` [Example 198, 4-(5-Chloro-2-hydroxyanilino)-2-(2-pyrazinyl)-6-trifluoromethylpyrimidine] are over 5000 nM, 1.8, 419 nM and 3.3.
The corresponding values for `COc1cccc(Nc2cc(C(F)(F)F)nc(-c3cnccn3)n2)c1` [Example 74, 4-(3-Methoxyanilino)-2-(2-pyrazinyl)-6-(trifluoromethyl)pyrimidine] are 326 nM, 13.1, 364 nM and 16.4.
For `Cc1ccc(C)c(Nc2cc(C(F)(F)F)nc(-c3cnccn3)n2)c1` [Example 196, 4-(2,5-Dimethylanilino)-2-(2-pyrazinyl)-6-trifluoromethylpyrimidine], in test [2], the EC50 came out at 527 nM and the “T47 Ratio 48 hr” value is listed as 11.3.
For `COc1ccc(OC)c(Nc2cc(C(F)(F)F)nc(-c3cnccn3)n2)c1` [Example 76, 4-(2,5-Dimethoxyanilino)-2-(2-pyrazinyl)-6-(trifluoromethyl)pyrimidine], in that order: under 150 nM and 8.5.
With `COc1ccc(Cl)c(Nc2cc(C(F)(F)F)nc(-c3cnccn3)n2)c1` [Example 82, 4-(2-Chloro-5-methoxyanilino)-2-(2-pyrazinyl)-6-(trifluoromethyl)pyrimidine], in test [2], the EC50 came out at 254 nM and the “T47 Ratio 48 hr” value came out at 15.3.
For `Oc1ccc(Cl)c(Nc2cc(C(F)(F)F)nc(-c3cnccn3)n2)c1` [Example 194, 4-(2-Chloro-5-hydroxyanilino)-2-(2-pyrazinyl)-6-trifluoromethylpyrimidine], in that order: 107 nM and 11.7.
With `COc1cc(Nc2cc(C(F)(F)F)nc(-c3ccccn3)n2)cc(OC)c1` [Example 195, 4-(3,5-Dimethoxyanilino)-2-(2-pyridinyl)-6-trifluoromethylpyrimidine], in test [2], the concentration giving a half-maximal response (EC50) turned out to be 20 nM and the “T47 Ratio 48 hr” value was 8.4.
